Measured values as given in patent US20150293109A1, “Fluorescent Chemical Dye for Visualization of Neural Stem Cell Symmetric and Asymmetric Division” (NATIONAL UNIVERSITY OF SINGAPORE, priority 2012, published 2015).
Where two headings read alike, the source gives them in different places.

Experiments:
Type in all cases: cell-based, mouse
[1] = tested on: dissociated neurosphere cells; experiment: Cytotoxicity assay: number of neurospheres grown in the presence of CDy5; details: for number of neurospheres: vehicle control 189±40
Description: (§1) To assess the effects of CDy5 and AC inhibitors on neurosphere formation, dissociated neurosphere cells were plated in 12-well culture plates at a density of 1,000 cells per well and cultures in the presence of 2 μM or 4 μM CDy5 or 0.01 to 10 μM AC inhibitor. For vehicle control, DMSO was added to a volume of 0.1%. The IC50 values were calculated using GraphPad Prism software.
(§2) Whether CDy5 exerts adverse effects on proliferation and differentiation of neural stem cells was also assessed using a neurosphere assay and multipotency test. For cytotoxicity assay, dissociated neurosphere cells were plated in triplicate in 6-well culture plates at a density of 1,000 cells per well and cultured in the presence of 2 μM or 4 μM CDy5. For vehicle control, 0.1% DMSO was added. After six days, the number of neurospheres was determined.

neurospheres [2] = experiment: Multipotency test of neurospheres generated in the presence of CDy5; details: neurospheres generated in the presence of CDy5, differentiated in 5% FBS
Description: as §2
The single neurospheres generated in the presence of CDy5 and normal medium were then plated onto glass coverslips coated with laminin and poly-L-lysine, cultured in medium containing 5% fetal bovine serum and allowed to undergo differentiation. The differentiated cells were immunostained using antibodies raised against markers of astrocyte, neuron and oligodendrocyte to classify the neurospheres into uni-, bi- and tri-potent depending on the number of positively stained cell types. The control group contained 55±6% unipotent neurospheres, 29±3% bipotent neurospheres and 16±3% tripotent neurospheres. The CDy5 group contained 49±1% unipotent neurospheres, 31±4% bipotent neurospheres and 20±3% tripotent neurospheres. These are very similar ratios of differentiation potential of neurospheres between control and CDy5 groups.

neurosphere cells = experiment: Neurosphere assay of FACS-sorted CDy5bright and CDy5dim cells; details: FACS-sorted cells, 3,000 cells per well, six days of culture
Description: The method of detecting a stem cell in a sample can further comprise distinguishing between a neural stem cell and a differentiated neural cell in the sample. For example, when a mouse neurosphere was treated with CDy5, cytoplasmic staining of a distinct cell population within the neurosphere was observed (FIG. 1). The so-called CDy5^bright cells, those visible in the right panel of FIG. 1, emitted a signal that was substantially greater than the signal emitted by the so-called CDy5^dim cells. […] In the experiment described above, a cell was considered to be a CDy5^dim cell if no signal could be detected by fluorescence microscopy, or the signal detected was not substantially greater than background signal.
Dissociated neurosphere cells were cultured in a complete neurosphere culture medium containing 2 μM CDy5 for six days. They were dissociated for single cell imaging, live cell time-lapse imaging and clonal neurosphere imaging. […]
To examine the relationship between stemness and CDy5 staining, CDy5^bright and CDy5^dim neurosphere cells were sorted and collected by FACS and separately resuspended in neurosphere culture medium and plated in triplicate in […] culture plates at a density of 3,000 cells per well. […] After six days of culture, the number of neurospheres was counted manually under a microscope.

neurospheres [3] = experiment: Differentiation potential of neurospheres generated from CDy5bright and CDy5dim cells; details: mean±SD of duplicates
Description: Single neurospheres were plated onto glass coverslips coated with laminin and poly-L-lysine and cultured in bFGF/EGF-depleted neurosphere culture medium containing 5% fetal bovine serum. The differentiated cells were fixed with 4% paraformaldehyde and stained using primary antibodies: Tuj1 (Covance), glial fibrillary acidic protein (GFAP) (Dako), and O4 (Millipore), and appropriate secondary antibodies: Alexa Fluor 488 goat anti-mouse, Alexa Fluor 594 goat anti-mouse and Alexa Fluor 647 donkey anti-rabbit (Life Technologies), respectively. Tuj1 was used as a marker for neurons, GFAP was used as a marker for astrocytes and 04 was used as a marker for oligodendrocytes.
When the neurospheres were randomly differentiated in a medium containing only FBS, and immunostained against astrocyte, neuron and oligodendrocyte markers as described above, more numbers of neurospheres generated from CDy5^bright cells differentiated into all three types of cells than those from CDy5^dim cells. The CDy5^bright cells differentiated into 30±4% uni-potent cells, 26±1 bi-potent cells and 44±3 tri-potent cells. The CDy5^dim cells differentiated into 47±6 uni-potent cells, 22±1 bi-potent cells and 31±7 tri-potent cells. Data represent mean±standard deviation (SD) of duplicates.

[4] = tested on: dissociated neurosphere cells; experiment: Neurosphere formation in the presence of AC inhibitors; details: 1,000 cells per well, 0.01 to 10 μM AC inhibitor, neurospheres counted, read-out: IC50 of inhibition of neurosphere formation
Description: Mouse brains harvested from E14.5 fetuses were digested with 0.25% trypsin/1mM EDTA solution for 30 minutes at 37° C. The tissues were triturated sequentially with a 10-mL pipette, a 1-mL pipette and a 0.2-mL pipette in medium containing 10% fetal bovine serum (FBS). The dissociated cells were washed 3 times with PBS by repeated resuspension and centrifugation, and filtered through a 40-μm strainer. The obtained single cells were plated in DMEM/F12 medium containing 10 ng/mL bFGF, 20 ng/mL EGF and B27 without vitamin A, and cultured for 7-10 days without changing the medium.
as §1
Ceranib-2 was developed as a ceramidase inhibitor by screening ˜50,000 small molecules and chemical optimization of a lead compound. It inhibits cancer cell growth in vivo as well as in vitro (21).

neurospheres [5] = experiment: Dye retention in stained neurospheres after paraformaldehyde fixation and methanol extraction; details: 4% paraformaldehyde fixation followed by absolute methanol
Source text: To determine if CDy5 forms a covalent bond with a protein, neurospheres stained with CDy5 and Hoechst 33342 were fixed using 4% paraformaldehyde followed by absolute methanol, which extracts organic dyes bound to their targets by noncovalent bonding. Both CDy5 and Hoechst signals were detected when observed after fixation with paraformaldehyde.

[6] = neurospheres from CDy5bright cells
[7] = neurospheres from CDy5dim cells

CN(CCNC(=O)CCl)c1ccc2c(-c3cccc(CN4CCOCC4)c3)c3ccc(=N)cc-3oc2c1 [CDy5]
number of neurospheres compared to vehicle-added control group ([1]; 2 μM and 4 μM CDy5, six days of culture): not significantly different | number of neurospheres ([1]; medium containing 2 μM CDy5): 229±72 | number of neurospheres ([1]; medium containing 4 μM CDy5): 228±83 | tripotent neurospheres (neurospheres [2]; control 16±3%): 20±3% | bipotent neurospheres (neurospheres [2]; control 29±3%): 31±4% | unipotent neurospheres (neurospheres [2]; control 55±6%): 49±1% | times more neurospheres from CDy5bright cells than from CDy5dim cells (neurosphere cells): more than 10 times | bi-potent (neurospheres [3]; [6]): 26±1% | tri-potent (neurospheres [3]; [6]): 44±3% | uni-potent (neurospheres [3]; [6]): 30±4% | bi-potent (neurospheres [3]; [7]): 22±1% | tri-potent (neurospheres [3]; [7]): 31±7% | uni-potent (neurospheres [3]; [7]): 47±6%

CCCCCCNC(=O)n1cc(F)c(=O)[nH]c1=O [Carmofur]
IC50 ([4]; Mus musculus): 0.92 µM

COc1ccc(/C=C/C(=O)c2c(-c3ccccc3)c3ccccc3[nH]c2=O)cc1 [Ceranib-2]
IC50 [4]: 0.78 µM

CCOc1ccc(-c2nc3ccc(-c4nc5ccc(N6CCN(C)CC6)cc5[nH]4)cc3[nH]2)cc1 [Hoechst 33342]
dye signal following methanol treatment (neurospheres [5]): almost completely washed out
